What was measured:
E-Selectin = molecular target: T1, E-Selectin (Homo sapiens, UniProt P16581); assay: Cell-free translation/translocation assay, E-Selectin; assay type: biochemical; settings: reticulocyte lysate with dog pancreatic microsomes, at the concentrations tested
T1 construct: Full length cDNAs of the adhesion molecules VCAM-1, ICAM-1 and E-Selectin are transcribed and translated; host or cells: cell-free: coupled TNT reticulocyte lysate (Promega) with dog pancreatic microsomes
T1 sequence (P16581 22-610): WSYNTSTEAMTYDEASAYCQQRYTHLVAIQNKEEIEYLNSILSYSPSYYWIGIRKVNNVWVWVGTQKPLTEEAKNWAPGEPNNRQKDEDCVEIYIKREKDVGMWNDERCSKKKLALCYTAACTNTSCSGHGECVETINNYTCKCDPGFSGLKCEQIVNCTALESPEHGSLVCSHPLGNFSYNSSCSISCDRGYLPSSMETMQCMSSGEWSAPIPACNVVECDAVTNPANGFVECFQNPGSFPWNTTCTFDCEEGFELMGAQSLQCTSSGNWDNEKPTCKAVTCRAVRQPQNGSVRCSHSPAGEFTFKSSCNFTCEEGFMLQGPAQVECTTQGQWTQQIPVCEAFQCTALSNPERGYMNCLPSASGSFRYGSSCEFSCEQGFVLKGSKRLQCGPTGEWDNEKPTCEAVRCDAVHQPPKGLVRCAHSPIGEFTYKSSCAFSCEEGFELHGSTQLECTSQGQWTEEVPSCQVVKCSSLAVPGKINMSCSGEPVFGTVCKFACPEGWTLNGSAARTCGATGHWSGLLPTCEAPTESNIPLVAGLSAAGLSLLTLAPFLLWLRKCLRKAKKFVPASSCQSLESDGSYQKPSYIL
Source text: Proteins are radioactively labelled and visualised by autoradlography.

SEAP = assay: SP-SEAP assay, secretion of SEAP into the medium; assay type: cell-based, human; settings: transiently transfected cells, increasing concentrations
Method: Cell Culture and Transient Transfections HEK293 cells are maintained in Dulbeccos' modified Eagle's medium (DMEM, Gibco-BRL), supplemented with 10% heat-inactivated fetal calf serum (FCS, Bio-Whittaker) and 100 Units/ml each of penicillin (BC) and streptomycin (Gibco-BRL) at 37° in a 5% humidified CO2 incubator. HUVEC cells are cultured in endothelial cell basal medium (EBM, Clonetics Corp.) supplemented with 10% FCS, 5×10^−4 M dibutyryl cAMP (Sigma), 1 μg/ml hydrocortisone (Sigma) and 10 ng/ml human EGF (Boehringer) at 37° in a 5% humidified CO2 incubator. VCAM-1 production is stimulated by incubation with 100U/ml TNF-α for ca. 8 hours. For transient transfection, HEK293 cells are seeded into 6-well or 24-well cell culture dishes at a density of 6×10^5 cells/well or 1.5×10^5 cells/well, respectively, the day prior to transfection and grown to 50-70% confluency. […]
Human placental SEAP levels in cell supernatants are determined using either a fluorescence-based assay or an assay that measures light absorbance at 405 nm accompanying hydrolysis of pNPP according to the method described (Berger et al., 1988). […] 20 μl of 120 mM pNPP in 1x SEAP buffer prewarmed to 37° is added and the change in absorbance at 37° is plotted. […] For determination of SEAP levels by a fluorescence-based assay the Atto Phos AP Fluorescent Substrate Sysem (Promega) is used according to the manufacturer's instructions. […]

[1] = molecular target: T2, VCAM-1 mutant molecule containing the SP from E-Selectin (Homo sapiens, UniProt P19320); assay: Chimeric fusion construct sensitivity (cell-free translation/translocation and transfected HEK293 cells); assay type: cell-based; settings: cell-free translation/translocation assay and transiently transfected HEK293 cells
T2 construct: E-Selectin signal peptide (SP; SELE, P16581), replacing VCAM-1's own SP (N); expressed in transfected cells; host or cells: HEK293 (transient); also translated cell-free in reticulocyte lysate with microsomes
Method: (§1) The E-Selectin and ICAM-1 expression vectors pCDM8-E-selectin and pCDM8-ICAM-1 allowing transient expression in mammalian cells and cell-free translation are obtained from R&D Systems. VCAM-1 cDNA is obtained by reverse transcription of total RNA from TNF-α stimulated primary human umbilical vein endothelial cells (HUVEC) as follows. After extraction of total RNA with Trizol (GibcoBRL) according to the suppliers recommendations, reverse transcription (RT) PCR on approximately 3 μg total HUVEC RNA is performed using the Advantage High Fidelity PCR kit (CLONTECH) under standard conditions with N- and C-terminal VCAM-1-specific sense and antisense oligonucleotide primers, respectively. Primers are tailed, introducing a Kpnl restriction site 5′ of the Kozak sequence and a Xhol site 3′ of the stop codon. Placental SEAP is amplified accordingly by PCR using plasmid pBC 12/PLAP489 (Berger et al., 1988) as a template and similar tailed SEAP-specific sense and antisense oligonuclotide primers. The SEAP and VCAM-1 cDNAs are isolated and cloned into the pCR2.1 vector (TA cloning kit, Invitrogen). All sequences are confirmed by sequencing and subsequently subcloned into the mammalian expression vector pcDNA3.1 (+) (Invitrogen) as Kpnl Xhol fragments for transient expression under control of the constitutive immediate-early CMV promoter and for cell-free translation from the bacteriophage T7 promoter. To generate SP-gene fusion constructs the recombinant PCR-ligation-PCR mutagenesis method is used (Ali and Steinkasserer, 1995). Briefly, in a primary PCR reaction the two fusion gene fragments are independently amplified using appropriate specific primers for the SPs (PCR product A) and the mature sequences (PCR product B), respectively. Approximately equal molar quantities of each PCR product A and B are phosphorylated and ligated. Finally, out of the possible ligation combinations, the desired fusion gene construct is specifically amplified from an aliquot of the ligation reaction by a secondary PCR using the 5′ sense primer of the SP and the 3′ antisense primer of the mature sequence. […]

[2] = molecular target: T3, E-Selectin mutant molecule with SP from VCAM-1 (Homo sapiens, UniProt P16581); assay: as above; assay type: cell-based; settings: cell-free translation/translocation assay and transiently transfected HEK293 cells
T3 construct: VCAM-1 signal peptide (SP; VCAM1, P19320), replacing E-Selectin's own SP (N); expressed in transfected cells; host or cells: HEK293 (transient); also translated cell-free in reticulocyte lysate with microsomes
Method: as §1

VCAMSP15+4/E-Sel = assay: as above; assay type: cell-based; settings: 15 aa of the SP plus 4 aa of the adjacent mature domain of VCAM-1
Method: as §1

[3] = system: IL-12p40 SP-SEAP fusion construct; assay: SP-SEAP assay, secretion of SEAP into the medium; assay type: cell-based; settings: transient overexpression in mammalian cells, increasing concentrations
Method: (§2) Cell Culture and Transient Transfections HEK293 cells are maintained in Dulbeccos' modified Eagle's medium (DMEM, Gibco-BRL), supplemented with 10% heat-inactivated fetal calf serum (FCS, Bio-Whittaker) and 100 Units/ml each of penicillin (BC) and streptomycin (Gibco-BRL) at 37° in a 5% humidified CO2 incubator. HUVEC cells are cultured in endothelial cell basal medium (EBM, Clonetics Corp.) supplemented with 10% FCS, 5×10^−4 M dibutyryl cAMP (Sigma), 1 μg/ml hydrocortisone (Sigma) and 10 ng/ml human EGF (Boehringer) at 37° in a 5% humidified CO2 incubator. VCAM-1 production is stimulated by incubation with 100U/ml TNF-α for ca. 8 hours. For transient transfection, HEK293 cells are seeded into 6-well or 24-well cell culture dishes at a density of 6×10^5 cells/well or 1.5×10^5 cells/well, respectively, the day prior to transfection and grown to 50-70% confluency. Cells are transfected with 2 μg or 1 μg of plasmid DNA, respectively, using the SuperFect reagent (Qiagen) according to the supplier's recommendations. Cells are incubated either without or with addition of a candidate compound, respectively, at concentrations indicated for ca. 24 to 48 hours. For proteasome inhibition experiments Lactacystin (Calbiochem) is added at a final concentration of 5 μM alone or together with a candidate compound 5 hours post-transfection, respectively.
(§3) Human placental SEAP levels in cell supernatants are determined using either a fluorescence-based assay or an assay that measures light absorbance at 405 nm accompanying hydrolysis of pNPP according to the method described (Berger et al., 1988). Briefly, a 500 μl aliquot of medium is removed from the culture dish, clarified for 1 min at 14,000×g and heated for 5 minutes at 65°. An aliquot of medium (10 μl-100 μl) is adjusted to 1x SEAP buffer (1.0 M diethanolamine, pH 9.8, 0.5 mM MgCl2, 10 mM L-homoarginine) in a final volume of 200 μl in a 96-well flat bottom culture dish (Nunc) and prewarmed to 37° for 10 min. 20 μl of 120 mM pNPP in 1x SEAP buffer prewarmed to 37° is added and the change in absorbance at 37° is plotted. Heating step and inclusion of L-homoarginine in the assay buffer inhibit any endogenous phophatase activity. For determination of SEAP levels by a fluorescence-based assay the Atto Phos AP Fluorescent Substrate Sysem (Promega) is used according to the manufacturer's instructions.
(§4) To further validate the novel assay system claimed in the present invention we generated SP-SEAP fusion constructs similarily to the method as described in example 1, but using the SP of other protein targets playing critical roles in various disease processes and tested their functionality by transient overexpression in mammalian cells in the absence or presence of increasing concentrations of compound CP as described (FIG. 7). […]

VEGF SP-SEAP construct = assay: SP-SEAP assay, secretion of SEAP into the medium; assay type: cell-based; settings: transient overexpression in mammalian cells, increasing concentrations, dose dependent, compared to VCAM-1 SP-SEAP
Method: as §2, §3, §4

[4] = system: IL4 SP-SEAP fusion construct; assay: SP-SEAP assay, secretion of SEAP into the medium; assay type: cell-based; settings: transient overexpression in mammalian cells, increasing concentrations
Method: as §2, §3, §4

[5] = system: MCP-1 SP-SEAP fusion construct; assay: SP-SEAP assay, secretion of SEAP into the medium; assay type: cell-based; settings: transient overexpression in mammalian cells, increasing concentrations
Method: as §2, §3, §4

translocation of E-Selectin (E-Selectin): resistant
sensitivity of the chimeric construct to the compound [1]: resistant
sensitivity of the chimeric construct to the compound [2]: partially sensitive
Compound: CCCCC(C)CC1NC(=O)C(Cc2cn(OC)c3ccccc23)N(C)C(=O)C(CC(C)C)NC(=O)C(CC(C)C)N(C)C(=O)C(CC(C)CCCC)NC(=O)C(CCC(=O)OCCC)OC(=O)C(C)N(C)C1=O (stereo not drawn) [CP]
sensitivity of SEAP secretion to the compound (SEAP): compound-insensitive
sensitivity of the chimeric construct to the compound (VCAMSP15+4/E-Sel): full sensitivity
sensitivity of SEAP secretion to the compound [3]: insensitive
sensitivity of SEAP secretion to the compound (VEGF SP-SEAP construct): sensitive
sensitivity of SEAP secretion to the compound [4]: insensitive
sensitivity of SEAP secretion to the compound [5]: insensitive

— patent publication US20040086904A1, “Screening assay for cotranslational translocation interfering compounds” (priority 2001, published 2004)
